In brackets after ≈: the same amount, converted by molar mass. Activity calls are given as the source filed them. No cut-off for these calls is given here.
Columns and labels:
[1] = Aqueous solubility of the compound at pH 6.5 by nephelometry; format: physicochemical
[2] = system: HepG2; test: Cytotoxicity against human HepG2 cells assessed as growth inhibition after 48 hrs by Cell Titer-Glo assay; format: cell-based; details: HepG2, 48 h
[3] = Aqueous solubility of the compound at pH 2 by nephelometry; format: physicochemical
[4] = system: Liver; test: Drug metabolism in human liver microsomes assessed as O-demethylation of 6 and 7 methoxy groups at 1 uM after 60 mins in presence of NADPH by LC-MS method; format: ADME, microsome; details: 1 h
[5] = system: Liver; test: Drug metabolism in mouse liver microsomes assessed as O-demethylation of 6 and 7 methoxy groups at 1 uM after 60 mins in presence of NADPH by LC-MS method; format: ADME, microsome; details: 1 h
[6] = system: Plasmodium falciparum; test: Antimalarial activity against Plasmodium falciparum 3D7 asexual blood stage infected in human erythrocytes incubated for 72 hrs by LDH assay; format: functional, cell-based; details: 3D7, 72 h
[7] = Hepatic extraction ratio in human liver microsomes at 1 uM in presence of NADPH by LC-MS method; format: ADME, microsome; details: read-out: ERH
[8] = Half life in human liver microsomes at 1 uM in presence of NADPH by LC-MS method; format: ADME, microsome
[9] = Intrinsic clearance in mouse liver microsomes at 1 uM in presence of NADPH by LC-MS method; format: ADME, microsome; details: read-out: CLH
[10] = Half life in mouse liver microsomes at 1 uM in presence of NADPH by LC-MS method; format: ADME, microsome
[11] = Selectivity index, ratio of EC50 for human HepG2 cells to EC50 for Plasmodium falciparum 3D7 asexual blood stage infected in human erythrocytes; format: toxicity, cell-based; details: read-out: Ratio EC50
[12] = Hepatic extraction ratio in mouse liver microsomes at 1 uM in presence of NADPH by LC-MS method; format: ADME, microsome; details: read-out: ERH
[13] = Intrinsic clearance in human liver microsomes at 1 uM in presence of NADPH by LC-MS method; format: ADME, microsome; details: read-out: CLH
[14] = system: Plasmodium falciparum; test: Antimalarial activity against synchronous culture of Plasmodium falciparum 3D7 ring stage parasite infected in human erythrocytes incubated for 3 hrs followed by compound wash out and measured after 24 hrs by NanoGlo-reagent based bioluminescence assay; format: functional, cell-based
[15] = Ratio of EC50 for Plasmodium falciparum NF54-pfs16-LUC-GFP ring stage gametocytes to EC50 for Plasmodium falciparum 3D7 asexual blood stage infected in human erythrocytes; format: functional
[16] = system: Liver; test: Drug metabolism in mouse liver microsomes assessed as mono-oxygenation at 6th position of quinazoline at 1 uM after 60 mins in presence of NADPH by LC-MS method; format: ADME, microsome; details: 1 h
[17] = system: Plasma; test: Drug uptake in Plasmodium berghei ANKA infected Swiss black mouse plasma at 20 mg/kg, po via gavage measured after 20 hrs; format: ADME, organism-based; details: in vivo
[18] = system: Plasmodium falciparum; test: Antimalarial activity against synchronous culture of Plasmodium falciparum 3D7 infected in human erythrocytes assessed as development arrest at ring stage of asexual life cycle leading to parasite death at 10 times EC50 up to 48 hrs by Giemsa-staining based assay relative to control; format: functional, cell-based
[19] = system: Plasmodium falciparum; test: Antimalarial activity against chloroquine and mefloquine resistant Plasmodium falciparum W2mef infected in human erythrocytes incubated for 72 hrs by LDH assay; format: functional, cell-based
[20] = system: Plasmodium falciparum; test: Antimalarial activity against Plasmodium falciparum NF54 harboring pfs16-LUC-GFP early stage 1 to 3 gametocytes after 48 hrs by MitoTracker Red staining based confocal microscopy; format: functional; details: NF54, 48 h
[21] = system: Liver; test: Drug metabolism in mouse liver microsomes assessed as N-demethylation of methyl piperidine or piperazine at 1 uM after 60 mins in presence of NADPH by LC-MS method; format: ADME, microsome; details: 1 h
[22] = system: Liver; test: Drug metabolism in human liver microsomes assessed as N-demethylation of methyl piperidine or piperazine at 1 uM after 60 mins in presence of NADPH by LC-MS method; format: ADME, microsome; details: 1 h
[23] = system: Plasmodium falciparum; test: Antimalarial activity against Plasmodium falciparum 3D7 infected in human erythrocytes assessed as arrest at trophozoite stage of asexual life cycle leading to parasite death at 10 times EC50 up to 48 hrs by Giemsa-staining based assay relative to control; format: functional, cell-based
[24] = system: Plasma; test: Drug uptake in Plasmodium berghei ANKA infected Swiss black mouse plasma at 20 mg/kg, ip measured after 20 hrs; format: ADME, organism-based; details: in vivo
[25] = system: Plasmodium berghei; test: Antimalarial activity against Plasmodium berghei ANKA infected Swiss black mouse model at 20 mg/kg administered via oral gavage for 4 days starting 4 hrs post infection by microscopic method; format: functional
[26] = system: Liver; test: Drug metabolism in mouse liver microsomes assessed as hydro defluorination at 1 uM after 60 mins in presence of NADPH by LC-MS method; format: ADME, microsome; details: 1 h
[27] = Ratio of EC50 for Plasmodium falciparum NF54-pfs16-LUC-GFP early stage gametocytes to EC50 for Plasmodium falciparum 3D7 asexual blood stage infected in human erythrocytes; format: functional
[28] = system: Plasmodium berghei; test: Antimalarial activity against Plasmodium berghei ANKA infected Swiss black mouse at 20 mg/kg, ip administered for 4 days starting 4 hrs post infection by microscopic method; format: functional
[29] = system: Plasmodium falciparum; test: Antimalarial activity against synchronous culture of Plasmodium falciparum 3D7 ring stage parasite infected in human erythrocytes incubated for 24 hrs followed by compound wash out and measured after 24 hrs by NanoGlo-reagent based bioluminescence assay; format: functional, cell-based; details: 3D7, 24 h
[30] = system: Plasmodium falciparum; test: Antimalarial activity against synchronous culture of Plasmodium falciparum 3D7 ring stage parasite infected in human erythrocytes incubated for 6 hrs followed by compound wash out and measured after 24 hrs by NanoGlo-reagent based bioluminescence assay; format: functional, cell-based
[31] = system: Liver; test: Drug metabolism in human liver microsomes assessed as mono-oxygenation at 6th position of quinazoline at 1 uM after 60 mins in presence of NADPH by LC-MS method; format: ADME, microsome; details: 1 h
[32] = system: Liver; test: Drug metabolism in human liver microsomes assessed as hydro defluorination at 1 uM after 60 mins in presence of NADPH by LC-MS method; format: ADME, microsome; details: 1 h
[33] = system: Plasmodium falciparum; test: Antimalarial activity against Plasmodium falciparum NF54 harboring pfs16-LUC-GFP ring stage gametocytes after 24 hrs by MitoTracker Red staining based confocal microscopy; format: functional; details: NF54, 24 h
[34] = system: Plasmodium falciparum; test: Antimalarial activity against Plasmodium falciparum NF54 harboring pfs16-LUC-GFP late stage 4 to 5 gametocytes after 48 hrs by MitoTracker Red staining based confocal microscopy; format: functional; details: NF54, 48 h

Row | SMILES | solubility kinetic [1] [µM] | EC50 [2] [nM] | solubility kinetic [3] [µM] | EC50 [6] [nM] | hepatic extraction ratio at 1 µM [7] | half-life at 1 µM [8] [h] | microsomal CLint at 1 µM [9] [µL/min/mg] | half-life at 1 µM [10] [h] | selectivity ratio [11] | hepatic extraction ratio at 1 µM [12] | microsomal CLint at 1 µM [13] [µL/min/mg] | Ratio EC50 [15] | Drug metabolism [16] | Drug uptake [17] | Activity [18] | EC50 [19] [nM] | EC50 [20] [nM] | Drug metabolism [21] | EC50 [33] [nM] | EC50 [34] [nM] | also measured
1 | COc1cc2nc(Nc3ccc(F)cc3)nc(NCc3ccccc3)c2cc1OC | 1.6 to 3.1 (≈ 0.647 to 1.25 µg/mL) | 2800 | 1.6 to 3.1 (≈ 0.647 to 1.25 µg/mL) | 41 | < 0.22 | > 4.12 | 35 | 0.817 | 109 | 0.43 | < 7 |  |  |  |  |  |  |  |  |  | Drug metabolism [4]: Metabolite_Detected; Drug metabolism [5]: Metabolite_Detected
2 | CN1CCN(CCNc2nc(Nc3ccc(F)c(Cl)c3)nc3ccccc23)CC1.Cl.Cl | 11.3 to 23 | 6100 | > 90 | 26 | < 0.22 | > 4.25 | 57 | 0.5 | 240 | 0.55 | < 7 | 10 | Metabolite_Detected | Active | Active | 49 | 326 | Metabolite_Detected | 179 | 3000 | EC50 [14]: 2500 nM; Drug metabolism [22]: Metabolite_Detected; Activity [23]: inactive; Drug uptake [24]: Active; Activity [25]: >90%; Drug metabolism [26]: Metabolite_Detected; Ratio EC50 [27]: 15 - 25; Activity [28]: >98%; EC50 [29]: 323 nM; Activity [30]: Dose dependent effect; EC50 [30]: 2960 nM; Drug metabolism [31]: Metabolite_Detected; Drug metabolism [32]: Metabolite_Detected
3 | CN1CCC(Nc2nc(Nc3ccc(Cl)c(F)c3)nc3ccccc23)CC1.Cl.Cl | 4.2 to 8.4 | 5100 | > 90 | 28 | 0.28 | 3.02 | 9 | 3.2 | 179 | 0.16 | 10 | 10 | Metabolite_Detected | Active | Active | 61 | 554 | Metabolite_Detected | 220 | 2700 | Drug metabolism [22]: Metabolite_Detected; Activity [23]: inactive; Drug uptake [24]: Active; Ratio EC50 [27]: 15 - 25; Drug metabolism [31]: Metabolite_Detected
4 | CN1CCN(CCNc2nc(Nc3ccc(Cl)c(F)c3)nc3ccccc23)CC1.Cl.Cl | 10.9 to 22 | 7500 | > 90 | 27 | 0.47 | 1.28 | 37 | 0.783 | 275 | 0.44 | 23 | 10 | Metabolite_Detected | Active | Active | 57 | 453 | Metabolite_Detected | 207 | 4000 | EC50 [14]: 3340 nM; Drug metabolism [22]: Metabolite_Detected; Activity [23]: inactive; Drug uptake [24]: Active; Activity [25]: >90%; Ratio EC50 [27]: 15 - 25; Activity [28]: >98%; EC50 [29]: 637 nM; Activity [30]: Dose dependent effect; EC50 [30]: 3120 nM; Drug metabolism [31]: Metabolite_Detected
5 | C[C@@H]1CC[C@H]2[C@@H](C)C(=O)O[C@@H]3O[C@@]4(C)CC[C@@H]1[C@]32OO4 [ARTEMISININ] |  |  |  |  |  |  |  |  |  |  |  |  |  |  |  |  |  |  |  |  | EC50 [29]: 2 nM; EC50 [30]: 5 nM
6 | COc1cc2nc(Nc3ccc(F)cc3)nc(NCC3CCCO3)c2cc1OC (stereo unspecified) | 3.1 to 6.3 (≈ 1.24 to 2.51 µg/mL) | 5500 | 25 to 50 (≈ 9.96 to 19.9 µg/mL) | 57 | 0.52 | 1.07 | 72 | 0.4 | 96 | 0.61 | 27 |  |  |  |  |  |  |  |  |  | Drug metabolism [4]: Metabolite_Detected; Drug metabolism [5]: Metabolite_Detected
7 | CCN(CC)CCCC(C)Nc1ccnc2cc(Cl)ccc12 (stereo unspecified) [CHLOROQUINE] |  |  |  | 23 |  |  |  |  |  |  |  |  |  |  |  |  |  |  | 20 | > 40000 | EC50 [14]: 608 nM; EC50 [29]: 286 nM; EC50 [30]: 643 nM
8 | CN1CCC(Nc2nc(Nc3ccc(F)c(Cl)c3)nc3ccccc23)CC1.Cl.Cl | 11.3 to 23 | 5100 | > 90 | 35 | < 0.22 | > 4.25 | 12 | 2.48 | 145 | 0.2 | < 7 | 10 | Metabolite_Detected | Active | Active | 54 | 515 | Metabolite_Detected | 223 | 3700 | Drug metabolism [22]: Metabolite_Detected; Activity [23]: inactive; Drug uptake [24]: Active; Activity [25]: Active; Drug metabolism [26]: Metabolite_Detected; Ratio EC50 [27]: 15 - 25; Drug metabolism [31]: Metabolite_Detected; Drug metabolism [32]: Metabolite_Detected

From ChEMBL document CHEMBL3997785, “Optimization of 2-Anilino 4-Amino Substituted Quinazolines into Potent Antimalarial Agents with Oral in Vivo Activity” (J Med Chem, 2017)
